According to US11825844B2, “Method for controlling Fusarium oxysporum f. sp. cubense tropical race 4” (GUANGXI UNIVERSITY, priority 2021, dated 2023):

Experiments:
spores of Foc TR4 = test: Effect on spore morphology of Foc TR4 in Gauze's Medium #1, observed under a scanning electron microscope; format: cell-based, Fusarium oxysporum f. sp. cubense tropical race 4
Method: XcA (the compound xerucitrinin A) at a final concentration of 3 mM was added to Gauze's Medium #1, and the filtered spore suspension of Foc was added, with a final spore concentration of 1×10^7 spores/mL. The control treatment was implemented by treating with the same volume of sterile water. The spore suspension was cultured at 28° C. in the dark for 24 h. The spores of Foc were collected and fixed in a 2.5% (v/v) glutaraldehyde solution at 4° C. overnight. The fixed spores were rinsed twice with 0.1 mol/L PBS (pH 7.4), dehydrated gradiently with 30%, 50%, 70%, 80%, 90%, 95%, and 100% ethanol solutions for 20 min, dried and subjected to gold spraying. The spore morphology of Foc TR4 was observed under a scanning electron microscope.

[1] = system: Brazilian banana seedlings; test: Effect on the growth of Brazilian banana seedlings in treated Gauze's Medium #1; format: in vivo; conditions: 3 mM in Gauze's Medium #1; 6 Brazilian banana seedlings per treatment
Method: XcA was dissolved in ethanol. In order to investigate the effect of XcA on the growth of Brazilian banana, 3 mM XcA was added to Gauze's Medium #1. A volume of ethanol (CK) equal to the compound concentration was added to the control. A negative control was set up, and 200 μM 8-hydroxyquinoline (8HQ) was added to the Gauze's Medium #1. Then Brazilian banana seedlings were planted in a culture plate containing the above-mentioned treated medium. Each treatment had 6 replicates (6 Brazilian banana seedlings). The culture plate containing Brazilian banana seedlings was placed in a growth chamber to grow for 10 days to observe the effect on plant growth. Each treatment continued to grow for two months, during which an equal volume of sterile water was supplemented, and the plant height, root weight and seedling weight of each treatment were determined.

[2] = Chrome azurol S (CAS) agar plate siderophore zone test for Fe-binding; conditions: 200 μL of 0.2 mM compound solution in Oxford cup, let stand for 3 h
Method: Chrome azurol S (CAS) agar plate, namely the siderophore screening medium consisting of 1 mL of 20% glucose solution, 3 mL of 10% casein, 100 μL of 1 mmoL/L CaCl2), 2 mL of 1 mmoL/L MgSO4, 100 mL of H2O, and 1.8 g of agar, was heated, and supplemented with 5 mL each of CAS dye solution and phosphate buffered saline (PBS) at 60° C. slowly to obtain a CAS-blue agar medium.
CAS dye solution included: 1 mmol/L CAS, 4 mmol/L hexadecyl trimethyl ammonium bromide, and 0.1 mmol/L FeCl3.
PBS (pH 6.8) included: 2.427 g of Na2HPO4.12H2O, 0.5905 g of NaH2PO4.2H2O, 0.075 g of KH2PO4, 0.250 g of NH4Cl, 0.125 g of NaCl, and 100 mL of H2O. All the above solutions were prepared with deionized water. […]
The Fe-binding ability of xerucitrinin A was detected by using the CAS agar plate. […] The growth of Foc TR4 is inhibited by binding Fe.

Structure (SMILES): Cc1c(O)c(C)c2c(c1O)CO[C@]1(C[C@H]3O[C@H](C)[C@@H](C)c4c(C)c(O)c(O)c(c43)O1)[C@H]2C [xerucitrinin A]
- spore morphology of Foc (spores of Foc TR4): obvious crenation on the surface of the spores
- germination and growth of the spores of Foc (spores of Foc TR4; 3 mM in Gauze's Medium #1, 28° C. in the dark for 24 h): affect the germination and growth of the spores of Foc
- effect on the growth of banana seedlings compared with the control [1]: no adverse effect on the growth of banana seedlings
- Fe-binding ability (siderophore zone around the Oxford cup) [2]: a siderophore zone appeared around the Oxford cup
